What all share (type): biochemical
Assay [1] concerns the target T1, adenosine kinase (recombinant human ADK, rhADK) (Homo sapiens, UniProt P55263). Description: in vitro rhADK phosphorylation assay, HPLC of monophosphate product.
Assay [2] addresses T1, adenosine kinase (recombinant human ADK, rhADK). Kind of assay: in vitro rhADK phosphorylation assay, HPLC of 2-oxo-AMP.
The target is the same in assay [3]. Description: in vitro rhADK enzyme assay, HPLC of 2-oxo-AMP product (IC50 […] with Ado as substrate).

The term IC50 denotes the concentration that gives 50% inhibition.

T1 sequence (P55263 2-362): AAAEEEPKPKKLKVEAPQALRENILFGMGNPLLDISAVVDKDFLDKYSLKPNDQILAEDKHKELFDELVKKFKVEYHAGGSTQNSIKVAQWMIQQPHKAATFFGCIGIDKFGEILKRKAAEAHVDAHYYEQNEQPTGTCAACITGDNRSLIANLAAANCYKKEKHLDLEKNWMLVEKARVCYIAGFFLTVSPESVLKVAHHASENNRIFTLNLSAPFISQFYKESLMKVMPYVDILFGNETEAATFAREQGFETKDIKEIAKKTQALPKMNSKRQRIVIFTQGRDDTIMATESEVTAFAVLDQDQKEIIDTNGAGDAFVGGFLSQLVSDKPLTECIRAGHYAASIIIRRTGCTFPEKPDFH

With `Nc1nc(Cl)nc2c1ncn2[C@@H]1O[C@H](CO)[C@@H](O)[C@H]1O` [2-chloroadenosine], in assay [1], the “in vitro rhADK phosphorylation assay, HPLC of monophosphate product” value is recorded as “Chromatograms of the reaction products of ADK with 2-Cl-Ado or AICAR showed novel peaks”.
Regarding `Nc1[nH]c(=O)nc2c1ncn2[C@@H]1O[C@H](CO)[C@@H](O)[C@H]1O` [2-oxoadenosine, 1,2-Dihydro-2-oxoadenosine], in assay [2], the “in vitro rhADK phosphorylation assay, HPLC of 2-oxo-AMP” value is “Recombinant human ADK, ATP and nucleosides 2-oxo-Ado (a) or Ado (b) were reacted”.
Take `C[S+]([O-])c1ccc(-c2nc(-c3ccncc3)c(-c3ccc(F)cc3)[nH]2)cc1` (stereo not drawn) [SB203580]: the half-inhibitory concentration (IC50) in assay [3] was 8.6 µM.

Values taken from article PMC5529524, “2-Oxoadenosine induces cytotoxicity through intracellular accumulation of 2-oxo-ATP and depletion of ATP but not via the p38 MAPK pathway” (Scientific Reports, 2017).
